According to publication PMC7037052, “Predicting the Blood-Brain Barrier Permeability of New Drug-Like Compounds via HPLC with Various Stationary Phases” (Molecules, 2020):

How the values were obtained:
Type in all cases: physicochemical
[1] = RP-HPLC retention on Purosphere RP-18e (ODS) column, buffer pH 7.4-acetonitrile; settings: for log kw, ODS: extrapolated to buffer pH 7.4 as mobile phase, 25 °C; for s ODS: slope of Soczewiński-Wachtmeister equation, acetonitrile φ 0.3–0.6
Protocol: (§1) Retention parameters reported as the log k values were calculated by the expression:(1) logk=log(tR−t0)/t0 where tR and t0 are the retention times of the solute and a non-retained compound (citric acid), respectively. They were used to calculate the log kw values, i.e., logarithms of retention parameter in the buffer as the mobile phase. For this purpose the Soczewiński-Wachtmeister’s equation was used:log k = log kw − sφ(2) where φ is the volume fraction of organic modifier in the mobile phase; k and kw are retention parameters corresponding to mixed effluent and buffer as the mobile phase, respectively. The slope s is characteristic of a given solute and chromatographic system. Strong linear relationships between log k and φ values were found for all the compounds in the range of effluent composition examined (R^2 > 0.9). The log kw values determined for the ODS (log kw, ODS), IAM (log kw, IAM) and Cholester (log kw, Cholester) columns were intercorrelated and the following linear relationships with a very good statistical quality were obtained:log kw, ODS = 0.691(± 0.094) + 0.982(± 0.044) log kw, IAM(3) SD = 0.257; R^2 = 0.8880; N = 65 log kw, ODS = 0.911(± 0.062) + 0.765(± 0.025) log kw, Cholester(4) SD = 0.192; R^2 = 0.9371; N = 65 log kw, IAM = 0.356(± 0.073) + 0.721(± 0.029) log kw, Cholester(5) SD = 0.224; R^2 = 0.9068; N = 65
(§2) Shimadzu Vp (Shimadzu, Izabelin, Poland) liquid chromatographic system equipped with LC 10AT pump, SPD 10A UV-Vis detector, SCL 10A system controller, CTO-10 AS chromatographic oven and Rheodyne injector valve with a 20 µL loop was applied in HPLC measurements. Three stationary phases were employed: • Purosphere RP-18e (ODS), 125 × 4 mm i.d., 5 µm (Merck); • IAM.PC.DD2 100 × 4.6 mm i.d., 10 µm (Regis Chemicals Company, Morton Grove, IL, USA); • Cosmosil Cholester, 75 × 2 mm i.d., 2.5 µm (Genore, Warsaw, Poland).
(§3) As mobile phases buffer-acetonitrile mixtures were used. The buffer was prepared from 0.01 mol L^−1 solutions of Na2HPO4 and citric acid and the pH 7.4 value was fixed before mixing with organic modifier. With the ODS column acetonitrile concentration in the effluent, expressed as a volume fraction (φ, v/v), was changed in the range 0.3–0.6, with the constant step of 0.1. The flow rate was 1 mL min^−1. With the IAM column acetonitrile concentration was changed in the range 0.2–0.5, also with the constant step of 0.1 and the flow rate was 1.3 mL min^−1. With the Cosmosil Cholester column acetonitrile concentration was changed in the range 0.4–0.6, with the constant step of 0.05 and the flow rate was 0.4 mL min^−1. Samples of test compounds were dissolved in acetonitrile—c.a. 0.005 mg mL^−1. […] They were detected under UV light at 210 and 254 nm. All measurements were carried out at 25 °C. The dead time values were measured from non-retained compound (citric acid) peaks. All reported log kw values are the average of at least three independent measurements. The extrapolated retention coefficients (logs kw) achieved by HPLC on ODS, IAM and Cholester stationary phases were used for modelling the log BB permeation of 65 drug-like compounds employed as a whole test set (Table 1).

[2] = RP-HPLC retention on Cosmosil Cholester column, buffer pH 7.4-acetonitrile; settings: for log kw, Cholester: extrapolated to buffer pH 7.4 as mobile phase, 25 °C; for s Cholester: slope of Soczewiński-Wachtmeister equation, acetonitrile φ 0.4–0.6
Protocol: as §1, §2, §3

[3] = RP-HPLC retention on IAM.PC.DD2 (immobilized artificial membrane) column, buffer pH 7.4-acetonitrile; settings: for log kw, IAM: extrapolated to buffer pH 7.4 as mobile phase, 25 °C; for s IAM: slope of Soczewiński-Wachtmeister equation, acetonitrile φ 0.2–0.5
Protocol: as §1, §2, §3

SMILES: Cc1ccc(N2CCn3c2nnc(-c2ccccc2)c3=O)cc1 [Compound 32]
- log kw, ODS [1]: 2.93
- s ODS [1]: 5.06
- log kw, Cholester [2]: 2.86
- s Cholester [2]: 4.65
- log kw, IAM [3]: 2.22
- s IAM [3]: 4.81

SMILES: Cc1ccc(N2CCn3c2nnc(-c2ccco2)c3=O)cc1 [Compound 20]
- log kw, ODS [1]: 2.43
- s ODS [1]: 4.39
- log kw, Cholester [2]: 2.03
- s Cholester [2]: 3.68
- log kw, IAM [3]: 1.69
- s IAM [3]: 3.90

SMILES: Cc1ccc(N2CCn3c2nnc(Cc2cccc(Cl)c2)c3=O)cc1 [Compound 49]
- log kw, ODS [1]: 3.31
- s ODS [1]: 5.41
- log kw, Cholester [2]: 3.40
- s Cholester [2]: 5.33
- log kw, IAM [3]: 2.78
- s IAM [3]: 5.50

SMILES: CCc1nnc2n(c1=O)CCN2c1ccccc1Cl [Compound 3]
- log kw, ODS [1]: 1.22
- s ODS [1]: 3.02
- log kw, Cholester [2]: 0.46
- s Cholester [2]: 1.70
- log kw, IAM [3]: 0.80
- s IAM [3]: 2.51

SMILES: O=c1c(-c2ccccc2)nnc2n1CCN2c1ccc(Cl)c(Cl)c1 [Compound 40]
- log kw, ODS [1]: 3.48
- s ODS [1]: 5.90
- log kw, Cholester [2]: 3.86
- s Cholester [2]: 6.02
- log kw, IAM [3]: 3.26
- s IAM [3]: 6.40

SMILES: CCOc1ccc(N2CCn3c2nnc(Cc2ccc(Cl)cc2)c3=O)cc1 [Compound 55]
- log kw, ODS [1]: 3.32
- s ODS [1]: 5.66
- log kw, Cholester [2]: 3.36
- s Cholester [2]: 5.35
- log kw, IAM [3]: 2.72
- s IAM [3]: 5.44

SMILES: Cc1cccc(N2CCn3c2nnc(-c2ccccc2)c3=O)c1C [Compound 36]
- log kw, ODS [1]: 2.74
- s ODS [1]: 4.85
- log kw, Cholester [2]: 2.34
- s Cholester [2]: 3.60
- log kw, IAM [3]: 1.85
- s IAM [3]: 4.05

SMILES: CCOc1ccc(N2CCn3c2nnc(Cc2cccc(Cl)c2)c3=O)cc1 [Compound 54]
- log kw, ODS [1]: 3.35
- s ODS [1]: 5.55
- log kw, Cholester [2]: 3.31
- s Cholester [2]: 5.22
- log kw, IAM [3]: 2.73
- s IAM [3]: 5.61

SMILES: CCOC(=O)Cc1nnc2n(c1=O)CCN2c1ccc(Cl)c(Cl)c1 [Compound 17]
- log kw, ODS [1]: 3.16
- s ODS [1]: 5.33
- log kw, Cholester [2]: 2.77
- s Cholester [2]: 4.61
- log kw, IAM [3]: 2.42
- s IAM [3]: 5.01

SMILES: O=c1c(CCc2ccccc2)nnc2n1CCN2c1ccc(Cl)c(Cl)c1 [Compound 65]
- log kw, ODS [1]: 4.29
- s ODS [1]: 6.66
- log kw, Cholester [2]: 4.12
- s Cholester [2]: 6.20
- log kw, IAM [3]: 3.40
- s IAM [3]: 6.55

SMILES: O=c1c(Cc2cccc(Cl)c2)nnc2n1CCN2c1ccccc1 [Compound 43]
- log kw, ODS [1]: 3.59
- s ODS [1]: 5.85
- log kw, Cholester [2]: 2.90
- s Cholester [2]: 4.80
- log kw, IAM [3]: 2.48
- s IAM [3]: 5.18

SMILES: CCOC(=O)Cc1nnc2n(c1=O)CCN2c1ccccc1 [Compound 12]
- log kw, ODS [1]: 1.75
- s ODS [1]: 3.61
- log kw, Cholester [2]: 1.11
- s Cholester [2]: 2.55
- log kw, IAM [3]: 1.21
- s IAM [3]: 3.11

SMILES: COC(=O)Cc1nnc2n(c1=O)CCN2c1ccc(OC)cc1 [Compound 9]
- log kw, ODS [1]: 1.30
- s ODS [1]: 3.02
- log kw, Cholester [2]: 0.57
- s Cholester [2]: 1.82
- log kw, IAM [3]: 0.81
- s IAM [3]: 2.45

SMILES: CCOc1ccc(N2CCn3c2nnc(Cc2ccccc2Cl)c3=O)cc1 [Compound 53]
- log kw, ODS [1]: 2.93
- s ODS [1]: 5.02
- log kw, Cholester [2]: 3.21
- s Cholester [2]: 5.15
- log kw, IAM [3]: 2.51
- s IAM [3]: 5.17

SMILES: COC(=O)Cc1nnc2n(c1=O)CCN2c1ccc(Cl)cc1 [Compound 11]
- log kw, ODS [1]: 2.36
- s ODS [1]: 4.44
- log kw, Cholester [2]: 1.82
- s Cholester [2]: 3.55
- log kw, IAM [3]: 1.82
- s IAM [3]: 4.39

SMILES: CCOc1ccc(N2CCn3c2nnc(CC(=O)OC)c3=O)cc1 [Compound 10]
- log kw, ODS [1]: 1.95
- s ODS [1]: 3.91
- log kw, Cholester [2]: 1.36
- s Cholester [2]: 2.81
- log kw, IAM [3]: 1.42
- s IAM [3]: 3.39

SMILES: CCOc1ccc(N2CCn3c2nnc(Cc2ccc(C)cc2)c3=O)cc1 [Compound 52]
- log kw, ODS [1]: 3.14
- s ODS [1]: 5.36
- log kw, Cholester [2]: 3.07
- s Cholester [2]: 5.02
- log kw, IAM [3]: 2.43
- s IAM [3]: 5.02

SMILES: O=c1c(-c2ccccc2)nnc2n1CCN2c1ccccc1 [Compound 29]
- log kw, ODS [1]: 2.49
- s ODS [1]: 4.51
- log kw, Cholester [2]: 2.34
- s Cholester [2]: 4.02
- log kw, IAM [3]: 1.91
- s IAM [3]: 4.22

SMILES: CCOC(=O)Cc1nnc2n(c1=O)CCN2c1ccc(OC)cc1 [Compound 14]
- log kw, ODS [1]: 1.37
- s ODS [1]: 3.15
- log kw, Cholester [2]: 0.65
- s Cholester [2]: 1.92
- log kw, IAM [3]: 0.91
- s IAM [3]: 2.58

SMILES: O=c1c(Cc2ccc(Cl)cc2)nnc2n1CCN2c1ccc(Cl)cc1 [Compound 60]
- log kw, ODS [1]: 4.02
- s ODS [1]: 6.45
- log kw, Cholester [2]: 3.68
- s Cholester [2]: 5.82
- log kw, IAM [3]: 3.17
- s IAM [3]: 6.18

SMILES: Cc1cccc(N2CCn3c2nnc(-c2ccccc2)c3=O)c1 [Compound 31]
- log kw, ODS [1]: 2.93
- s ODS [1]: 5.02
- log kw, Cholester [2]: 2.77
- s Cholester [2]: 4.42
- log kw, IAM [3]: 2.26
- s IAM [3]: 4.68

SMILES: O=c1c(Cc2ccccc2Cl)nnc2n1CCN2c1ccc(Cl)cc1 [Compound 58]
- log kw, ODS [1]: 3.55
- s ODS [1]: 5.65
- log kw, Cholester [2]: 3.74
- s Cholester [2]: 5.62
- log kw, IAM [3]: 3.22
- s IAM [3]: 6.32

SMILES: Cc1ccc(N2CCn3c2nnc(Cc2ccccc2)c3=O)cc1 [Compound 45]
- log kw, ODS [1]: 3.35
- s ODS [1]: 5.55
- log kw, Cholester [2]: 2.74
- s Cholester [2]: 4.59
- log kw, IAM [3]: 2.15
- s IAM [3]: 4.69

SMILES: CCOC(=O)Cc1nnc2n(c1=O)CCN2c1ccc(C)cc1 [Compound 13]
- log kw, ODS [1]: 2.37
- s ODS [1]: 4.36
- log kw, Cholester [2]: 1.92
- s Cholester [2]: 3.58
- log kw, IAM [3]: 1.70
- s IAM [3]: 3.85

SMILES: COc1ccc(N2CCn3c2nnc(-c2ccccc2)c3=O)cc1 [Compound 34]
- log kw, ODS [1]: 2.59
- s ODS [1]: 4.62
- log kw, Cholester [2]: 2.27
- s Cholester [2]: 3.80
- log kw, IAM [3]: 1.71
- s IAM [3]: 3.91

SMILES: CCOc1ccc(N2CCn3c2nnc(-c2ccccc2)c3=O)cc1 [Compound 35]
- log kw, ODS [1]: 3.09
- s ODS [1]: 5.33
- log kw, Cholester [2]: 2.80
- s Cholester [2]: 4.61
- log kw, IAM [3]: 2.14
- s IAM [3]: 4.48

SMILES: Cc1ccc(Cc2nnc3n(c2=O)CCN3c2ccc(C)cc2)cc1 [Compound 46]
- log kw, ODS [1]: 3.04
- s ODS [1]: 5.30
- log kw, Cholester [2]: 3.15
- s Cholester [2]: 5.05
- log kw, IAM [3]: 2.51
- s IAM [3]: 5.22

SMILES: Cc1ccccc1N1CCn2c1nnc(-c1ccccc1)c2=O [Compound 30]
- log kw, ODS [1]: 2.12
- s ODS [1]: 4.01
- log kw, Cholester [2]: 1.88
- s Cholester [2]: 3.50
- log kw, IAM [3]: 1.53
- s IAM [3]: 3.52
